Source: patent US9914730B2, “Azaquinazoline inhibitors of Atypical protein Kinase C” (Ignyta, Inc., priority 2012, dated 2018)

Target: T1, full-length human PKCι (Homo sapiens, UniProt P41743)
T1 construct: Recombinant, full-length human PKCι expressed in Sf21 insect cells is also commercially available; purchased; host or cells: Sf21 insect cells
T1 sequence (P41743 1-596): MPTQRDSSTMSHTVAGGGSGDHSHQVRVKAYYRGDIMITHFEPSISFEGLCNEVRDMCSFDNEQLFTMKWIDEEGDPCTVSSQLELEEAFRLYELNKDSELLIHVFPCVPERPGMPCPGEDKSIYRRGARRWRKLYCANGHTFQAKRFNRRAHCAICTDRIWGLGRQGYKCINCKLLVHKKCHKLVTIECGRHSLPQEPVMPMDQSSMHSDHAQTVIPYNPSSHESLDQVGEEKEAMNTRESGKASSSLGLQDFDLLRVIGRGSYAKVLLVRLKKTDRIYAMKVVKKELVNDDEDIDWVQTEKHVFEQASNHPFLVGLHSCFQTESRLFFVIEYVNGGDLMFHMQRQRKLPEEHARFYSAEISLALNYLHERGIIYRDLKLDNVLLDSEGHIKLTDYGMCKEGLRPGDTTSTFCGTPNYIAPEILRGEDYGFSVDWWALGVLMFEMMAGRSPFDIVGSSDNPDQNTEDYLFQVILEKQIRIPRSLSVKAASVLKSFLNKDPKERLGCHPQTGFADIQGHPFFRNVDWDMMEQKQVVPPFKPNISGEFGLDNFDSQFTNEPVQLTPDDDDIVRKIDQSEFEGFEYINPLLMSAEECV
Assay: PKCι IC50 IMAP assay, full-length PKCι at 150 μM ATP
Assay type: biochemical
Details: read-out: IC50 in IMAP assay against full length PKCi at 150 μM ATP
Method in brief: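 Phosphorylation of a 5FAM-tagged PKCε pseudopeptide-derived substrate (100 nM) by full-length recombinant human PKCι was monitored by IMAP fluorescence polarisation. ATP was held at 150 μM, five times its apparent KM, with 60 min room-temperature incubation.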

IC50 | Compound
< 100 nM | CN1CCP(=O)(c2ccc(Nc3cc(-c4nc(N5CCNCC5)c5c(C6CC6)cncc5n4)ccn3)cc2)CC1 [Example 614, [4-(5-Cyclopropyl-4-piperazin-1-yl-pyrido[3,4-d]pyrimidin-2-yl)-pyridin-2-yl]-[4-(1-methyl-4-oxo-4λ^5-[1,4]azaphos-phinan-4-yl)-phenyl]-amine]
100 to 1000 nM | Nc1cccc(CC(=O)Nc2cc(-c3nc(N[C@@H]4CCNC4)c4ccncc4n3)ccn2)c1 [Example 317, 2-(3-Amino-phenyl)-N-{4-[4-((R)-pyrrolidin-3-ylamino)-pyrido[3,4-d]pyrimidin-2-yl]-pyridin-2-yl}-acetamide]
< 100 nM | c1ccc2c(c1)CC[C@H]2Nc1cc(-c2nc(N3CCNCC3)c3c(C4CC4)cncc3n2)ccn1 [Example 2098, [4-(5-Cyclopropyl-4-piperazin-1-yl-pyrido[3,4-d]pyrimidin-2-yl)-pyridin-2-yl]-(R)-indan-1-yl-amine]
100 to 1000 nM | O=C(O)c1ccc(Nc2cc(-c3nc(N4CCNCC4)c4c(C5CC5)cncc4n3)ccn2)cc1 [Example 684, 4-[4-(5-Cyclopropyl-4-piperazin-1-yl-pyrido[3,4-d]pyrimidin-2-yl)-pyridin-2-ylamino]-benzoic acid]
100 to 1000 nM | N#Cc1ccc(F)c(Nc2cc(-c3nc(N4CCNCC4)c4c(C5CC5)cncc4n3)ccn2)c1 [Example 528, 3-[4-(5-Cyclopropyl-4-piperazin-1-yl-pyrido[3,4-d]pyrimidin-2-yl)-pyridin-2-ylamino]-4-fluoro-benzonitrile]
< 100 nM | O[C@@H]1CN(c2nc(-c3ccnc(Nc4cccc(N5CCOCC5)c4)c3)nc3cncc(C4CC4)c23)CC[C@@H]1O (racemic) [Example 2005, (+/−)-cis-1-{5-Cyclopropyl-2-[2-(3-morpholin-4-yl-phenylamino)-pyridin-4-yl]-pyrido[3,4-d]pyrimidin-4-yl}-piperidine-3,4-diol]
1000 to 10000 nM | COc1cncc2nc(-c3ccncc3)nc(N3CCN(CC(N)=O)[C@@H](Cc4ccccc4)C3)c12 [Example 48, 2-[(2S)-2-benzyl-4-[5-methoxy-2-(pyridin-4-yl)-pyrido[3,4-d]-pyrimidin-4-yl]-piperazin-1-yl]acetamide]
< 100 nM | COc1cncc2nc(-c3ccnc(Nc4ccc(N(C)C)cc4)c3)nc(N[C@@H]3CCNC3)c12 [Example 226, N-{4-[5-Methoxy-4-((R)-pyrrolidin-3-ylamino)-pyrido[3,4-d]pyrimidin-2-yl]-pyridin-2-yl}-N′,N′-dimethyl-benzene-1,4-diamine]
< 100 nM | Fc1cccc(Nc2cc(-c3nc(N4CCNCC4)c4c(C5CC5)cncc4n3)ccn2)c1Cl [Example 578, (2-Chloro-3-fluoro-phenyl)-[4-(5-eyclopropyl-4-piperazin-1-yl-pyrido[3,4-d]pyrimidin-2-yl)-pyridin-2-yl]-Amine]
< 100 nM | C[C@H]1CN(c2nc(-c3ccnc4[nH]c(C(F)(F)F)cc34)nc3cncc(C4CC4)c23)CCN1 [Example 1233, 5-Cyclopropyl-4-((S)-3-methyl-piperazin-1-yl)-2-(2-trifluoromethyl-1H-pyrrolo[2,3-b]pyridin-4-yl)-pyrido[3,4-d]pyrimidine]
< 100 nM | Cc1cc2c(-c3nc(N4CCNCC4)c4c(C5CC5)cncc4n3)ccnc2[nH]1 [Example 1217, 5-Cyclopropyl-2-(2-methyl-1H-pyrrolo[2,3-b]pyridin-4-yl)-4-piperazin-1-yl-pyrido[3,4-d]pyrimidine]
< 100 nM | N#Cc1ccnc(Nc2cc(-c3nc(N4CCN[C@@H](CF)C4)c4c(C5CC5)cncc4n3)ccn2)c1 [Example 530, 2-{4-[5-Cyclopropyl-4-((R)-3-fluoromethyl-piperazin-1-yl)-pyrido[3,4-d]-pyrimidin-2-yl]-pyridin-2-ylamino}-iso-nicotinonitrile]

Compound | IC50
CN1CCC(N(C)c2nc(-c3ccnc(Nc4c(F)cccc4F)c3)nc3cncc(C4CC4)c23)CC1 [Example 2083, {5-Cyclopropyl-2-[2-(2,6-difluoro-phenylamino)-pyridin-4-yl]-pyrido[3,4-d]pyrimidin-4-yl}-methyl-(1-methyl-piperidin-4-yl)-amine] | < 100 nM
